Earlier results as cited in patent US7820851B2, “Isotopically labeled polyfluorinated compound useful as an imaging tracer” (PerkinElmer Health Sciences, Inc., priority 2006, dated 2010).
Where two headings read alike, the source gives them in different places.

Tests used:
[1] = reported value; context: PFOA levels in American residents

O=C(O)C(F)(F)C(F)(F)C(F)(F)C(F)(F)C(F)(F)C(F)(F)C(F)(F)F [PFOA, Perfluorooctanoic acid]
primary tissues of distribution of PFOA-derived carbon-14 (female rats): liver, plasma, and kidney | elimination of PFOA-derived radioactivity in the urine (female rats, carbon-14 labeled PFOA): rapidly | primary tissues of distribution of PFOA-derived carbon-14 (male rats): liver and plasma | administered carbon-14 eliminated in the urine (male rats, carbon-14 labeled PFOA, in the same period): 6% | elimination half-life [1]: 4 years
